According to ChEMBL document CHEMBL1201862, “PubChem BioAssay data set” (2004):
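Dose response: 5 concentrations. Exposure: 48 h. Format: 96-well plates. Endpoint: linear interpolation; highest concentration if not reached. Abbreviation: GI50, concentration required for 50% inhibition of growth.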 Calls of active or inactive are those of the source. Rule as the data show it: active = GI50 up to about 1.1 µM and inactive = higher.

Key:
Assay in all cases: DTP human tumour cell line panel, 48 h
[1] = tested on: BT-549
[2] = tested on: CAKI-1
[3] = tested on: CCRF-CEM
[4] = tested on: DU-145
[5] = tested on: MCF7
[6] = tested on: MDA-N
[7] = tested on: NCI-H226
[8] = tested on: NCI/ADR-RES
[9] = tested on: OVCAR-4
[10] = tested on: OVCAR-8
[11] = tested on: PC-3
[12] = tested on: RXF 393
[13] = tested on: SF-539
[14] = tested on: SK-MEL-5
[15] = tested on: SK-OV-3
[16] = tested on: SN12C
[17] = tested on: SNB-19
[18] = tested on: T47D
[19] = tested on: TK-10
[20] = tested on: UACC-62

Measured: GI50

C[N+]1(CCC(=O)c2ccccc2)CCC2CCC(C2)C1 (stereo not given)
inactive: [1] > 100 µM | [2] > 100 µM | [3] > 100 µM | [4] > 100 µM | [5] > 100 µM | [6] > 100 µM | [7] > 100 µM | [8] > 100 µM | [9] > 100 µM | [10] > 100 µM | [11] > 100 µM | [12] > 100 µM | [13] > 100 µM | [14] > 100 µM | [15] > 100 µM | [16] > 100 µM | [17] > 100 µM | [18] > 100 µM | [19] > 100 µM | [20] > 100 µM

CC(=O)N(C)c1ccc(/N=C/N(C)C)cc1
inactive: [1] > 100 µM | [2] > 100 µM | [3] > 100 µM | [4] > 100 µM | [5] 82.4 µM | [6] > 100 µM | [7] > 100 µM | [8] > 100 µM | [9] > 100 µM | [10] > 100 µM | [11] > 100 µM | [12] > 100 µM | [13] > 100 µM | [14] > 100 µM | [15] > 100 µM | [16] > 100 µM | [17] > 100 µM | [18] > 100 µM | [19] > 100 µM | [20] > 100 µM
